“Also recorded” adds a separate entry of the source. Like-named read-outs stand apart in the source and are kept apart here. Values belong to the molecule of their own block, whether it stands above or below them. Ends that are not written are not given here. * marks the point of attachment. X2 = CN(c1ccccc1)c1ccc2c(-c3ccccc3S(=O)(=O)N3CCC(C(=O)NCCCCCN4C(=O)CC(*)C4=O)CC3)c3ccc(=[N+](C)c4ccccc4)cc-3oc2c1; X1 = O=C1OC2(c3cc(F)c(O)cc3Oc3cc(O)c(F)cc32)c2ccc(N3C(=O)CC(*)C3=O)cc21
Experiments:
[1] = target: T1, FV-810 (Homo sapiens, UniProt P12259, DEL839-1519); assay: Analytical ultracentrifugation (sedimentation velocity) of QSY7-BR with FV-810; type: binding
T1 construct: amino acids 1-28 are a signal peptide that is cleaved and numbering begins at residue 29; made in house
Method: Analytical ultracentrifugation of QSY7 C5-maleimide-modified BR (QSY7-BR) was performed in a Beckman Optima XL-I analytical ultracentrifuge using absorbance optics. Sedimentation velocity was measured at 25,000 or 45,000 rpm with two-sector cells in an An-60 Ti rotor at 20° C. Sedimentation of QSY7-BR was followed measuring absorbance at 560 nm in cells containing 5 μM QSY7-BR alone or with 7 μM FV-810 or rFVa in 20 mM HEPES, 150 mM NaCl, and 2 mM CaCl2, pH 7.4. Sedimentation coefficients and molecular weights were determined by g(s*) analysis performed using DCDT+ (Philo, J. S. (2000) Anal. Biochem., 279:151-163).

[2] = target: T1, FV-810; assay: Clotting assay, FV-deficient plasma supplemented with FV-810 (FV-DT); type: biochemical; conditions: FV-deficient plasma; FIG. 8A: 0.25 nM FV-810, peptides at 5 μM
Method: (§1) Residual clotting activity of Factor V variants was determined by prothrombin time-based clotting assays. Factor V variants were incubated with either the FVBR or s46 peptide, after which the mixtures were mixed with Factor V deficient plasma and clotting times were measured. Where indicated, the Factor V variants were activated by pre-incubation with thrombin prior to addition of the peptides.
(§2) FV derivatives (500 nM) were prepared in assay buffer. Where noted, FV derivatives were pretreated with 10 nM thrombin for 15 minutes at 37° C., followed by the addition of 15 nM hirudin. Samples were diluted to 0.25 nM in assay buffer with 0.1% BSA, and the specific clotting activity was measured in FV-deficient plasma (George King Bio-Medical, Overland Park, Kans.) with TriniCLOT PT Excel (Tcoag, Wicklow, Ireland) as described (Camire et al. (1998) Biochemistry 37:11896-11906). The data are presented as the means±S.D.

[3] = target: T2, FVDT (Homo sapiens, UniProt P12259, DEL839-1519); assay: Direct binding of TFPI to FVDT (FIG. 7C)
T2 construct: amino acids 1-28 are a signal peptide that is cleaved and numbering begins at residue 29; made in house

[4] = target: T2, FVDT; assay: Inhibition of FVDT by the FVBR or TFPI peptide (FIG. 7B); type: biochemical
[5] = target: T1, FV-810; assay: Displacement of OG488-BR from preformed OG488-BR/FV-810 complex (fluorescence anisotropy); type: binding
[6] = target: T3, FXa/FV-DT (Homo sapiens, UniProt P12259, DEL839-1519); assay: Prothrombin activation assay, prothrombinase containing FV-810 (FV-DT); type: biochemical; conditions: peptide titrated; 1.4 μM prothrombin, 50 μM PCPS, 25° C.
T3 construct: amino acids 1-28 are a signal peptide that is cleaved and numbering begins at residue 29; made in house
Method: Steady-state initial velocities of prothrombin cleavage were determined discontinuously at 25° C. by measuring the initial rate of thrombin formation. Reaction mixtures contained liposomes (75:25, PC:PS), prothrombin, the indicated Factor V variants, and the Factor V peptides FVBR or s46. The reactions were initiated by adding Factor Xa, and thrombin generation was determined at multiple time points by monitoring the cleavage of the chromogenic thrombin substrate S-2238.
Steady-state initial velocities of prothrombin cleavage were determined discontinuously at 25° C. as described (Camire, R. M. (2002) J. Biol. Chem., 277:37863-37870). Reaction mixtures containing PCPS (50 μM), DAPA (3 μM), prothrombin (1.4 μM), and either rFVa or the indicated FV-810 derivatives were incubated with B-domain peptides (0-10 μM) in assay buffer. […] Prothrombin activation was determined using the chromogenic thrombin substrate 52238 as described (Camire, R. M. (2002) J. Biol. Chem., 277:37863-37870).

[7] = target: T4, rFVa (Homo sapiens, UniProt P12259); assay: Fluorescence anisotropy, direct binding of OG488-BR to rFVa; conditions: fluorescently labeled BR peptide, rFVa titrated
T4 construct: thrombin rapidly cleaves Factor V at Arg709 to produce heavy chain (HC); rapidly cleaves at Arg1018 and Arg1545 to produce light chain (LC); made in house
T4 sequence (P12259 29-737 limits assumed): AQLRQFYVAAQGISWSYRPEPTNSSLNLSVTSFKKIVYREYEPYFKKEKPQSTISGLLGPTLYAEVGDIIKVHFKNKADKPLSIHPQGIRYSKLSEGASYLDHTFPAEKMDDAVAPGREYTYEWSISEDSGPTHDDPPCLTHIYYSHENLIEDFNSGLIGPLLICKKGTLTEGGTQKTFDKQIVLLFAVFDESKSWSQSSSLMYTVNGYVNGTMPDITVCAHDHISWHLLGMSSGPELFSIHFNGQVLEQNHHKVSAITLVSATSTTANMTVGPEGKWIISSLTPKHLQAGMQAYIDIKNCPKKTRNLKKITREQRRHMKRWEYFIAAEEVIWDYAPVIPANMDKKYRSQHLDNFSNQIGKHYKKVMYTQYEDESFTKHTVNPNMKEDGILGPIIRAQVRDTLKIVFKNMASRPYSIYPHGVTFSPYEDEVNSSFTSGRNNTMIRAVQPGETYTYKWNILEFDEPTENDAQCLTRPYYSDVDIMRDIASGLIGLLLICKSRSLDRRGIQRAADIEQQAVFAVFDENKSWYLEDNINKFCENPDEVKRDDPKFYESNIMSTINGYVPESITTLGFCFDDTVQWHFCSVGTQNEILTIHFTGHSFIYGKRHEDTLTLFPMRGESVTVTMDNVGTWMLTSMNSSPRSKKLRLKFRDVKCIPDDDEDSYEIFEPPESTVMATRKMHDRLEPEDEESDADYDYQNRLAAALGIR
T4 sequence (P12259 1574-2224 limits assumed): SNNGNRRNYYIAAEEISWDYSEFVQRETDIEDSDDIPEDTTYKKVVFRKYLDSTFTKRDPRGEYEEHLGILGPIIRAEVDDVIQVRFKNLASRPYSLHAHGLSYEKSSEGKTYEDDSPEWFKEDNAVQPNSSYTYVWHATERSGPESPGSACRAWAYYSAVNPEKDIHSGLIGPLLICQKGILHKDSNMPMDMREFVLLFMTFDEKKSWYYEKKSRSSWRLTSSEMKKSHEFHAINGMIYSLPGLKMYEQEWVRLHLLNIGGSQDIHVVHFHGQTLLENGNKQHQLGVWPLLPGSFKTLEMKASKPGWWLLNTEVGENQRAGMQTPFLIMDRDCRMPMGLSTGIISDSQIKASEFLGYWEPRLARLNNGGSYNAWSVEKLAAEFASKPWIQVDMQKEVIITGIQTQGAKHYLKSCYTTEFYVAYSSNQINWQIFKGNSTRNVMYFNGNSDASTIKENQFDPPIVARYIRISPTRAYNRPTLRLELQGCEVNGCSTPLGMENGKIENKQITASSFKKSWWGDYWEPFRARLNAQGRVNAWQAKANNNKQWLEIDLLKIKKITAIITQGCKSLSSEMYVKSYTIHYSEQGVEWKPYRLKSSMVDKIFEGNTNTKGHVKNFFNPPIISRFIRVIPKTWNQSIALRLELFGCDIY

[8] = target: T5, FV-810^R1545Q (Homo sapiens, UniProt P12259, DEL839-1519/R1573Q); assay: Fluorescence anisotropy, binding of OG488-BR to FV-810^R1545Q
T5 construct: amino acids 1-28 are a signal peptide that is cleaved and numbering begins at residue 29; made in house

[9] = target: T6, FV-810^QQ (Homo sapiens, UniProt P12259, DEL839-1519/R1573Q/R737Q); assay: Fluorescence anisotropy, binding of OG488-BR to FV-810^QQ; conditions: after incubation with thrombin
T6 construct: amino acids 1-28 are a signal peptide that is cleaved and numbering begins at residue 29; made in house

[10] = target: T1, FV-810; assay: Fluorescence anisotropy, direct binding of OG488-BR to FV-810
[11] = target: T7, FV-810^R709Q (Homo sapiens, UniProt P12259, DEL839-1519/R737Q); assay: Fluorescence anisotropy, binding of OG488-BR to FV-810^R709Q; conditions: after incubation with thrombin
T7 construct: amino acids 1-28 are a signal peptide that is cleaved and numbering begins at residue 29; made in house

[12] = target: T4, rFVa; assay: Clotting assay, FV-deficient plasma supplemented with rFVa; type: biochemical; conditions: FIG. 8B: 0.25 nM rFVa, peptides at 5 μM
Method: as §1, §2

T1 sequence (P12259 with tags, fused parts or gaps DEL839-1519): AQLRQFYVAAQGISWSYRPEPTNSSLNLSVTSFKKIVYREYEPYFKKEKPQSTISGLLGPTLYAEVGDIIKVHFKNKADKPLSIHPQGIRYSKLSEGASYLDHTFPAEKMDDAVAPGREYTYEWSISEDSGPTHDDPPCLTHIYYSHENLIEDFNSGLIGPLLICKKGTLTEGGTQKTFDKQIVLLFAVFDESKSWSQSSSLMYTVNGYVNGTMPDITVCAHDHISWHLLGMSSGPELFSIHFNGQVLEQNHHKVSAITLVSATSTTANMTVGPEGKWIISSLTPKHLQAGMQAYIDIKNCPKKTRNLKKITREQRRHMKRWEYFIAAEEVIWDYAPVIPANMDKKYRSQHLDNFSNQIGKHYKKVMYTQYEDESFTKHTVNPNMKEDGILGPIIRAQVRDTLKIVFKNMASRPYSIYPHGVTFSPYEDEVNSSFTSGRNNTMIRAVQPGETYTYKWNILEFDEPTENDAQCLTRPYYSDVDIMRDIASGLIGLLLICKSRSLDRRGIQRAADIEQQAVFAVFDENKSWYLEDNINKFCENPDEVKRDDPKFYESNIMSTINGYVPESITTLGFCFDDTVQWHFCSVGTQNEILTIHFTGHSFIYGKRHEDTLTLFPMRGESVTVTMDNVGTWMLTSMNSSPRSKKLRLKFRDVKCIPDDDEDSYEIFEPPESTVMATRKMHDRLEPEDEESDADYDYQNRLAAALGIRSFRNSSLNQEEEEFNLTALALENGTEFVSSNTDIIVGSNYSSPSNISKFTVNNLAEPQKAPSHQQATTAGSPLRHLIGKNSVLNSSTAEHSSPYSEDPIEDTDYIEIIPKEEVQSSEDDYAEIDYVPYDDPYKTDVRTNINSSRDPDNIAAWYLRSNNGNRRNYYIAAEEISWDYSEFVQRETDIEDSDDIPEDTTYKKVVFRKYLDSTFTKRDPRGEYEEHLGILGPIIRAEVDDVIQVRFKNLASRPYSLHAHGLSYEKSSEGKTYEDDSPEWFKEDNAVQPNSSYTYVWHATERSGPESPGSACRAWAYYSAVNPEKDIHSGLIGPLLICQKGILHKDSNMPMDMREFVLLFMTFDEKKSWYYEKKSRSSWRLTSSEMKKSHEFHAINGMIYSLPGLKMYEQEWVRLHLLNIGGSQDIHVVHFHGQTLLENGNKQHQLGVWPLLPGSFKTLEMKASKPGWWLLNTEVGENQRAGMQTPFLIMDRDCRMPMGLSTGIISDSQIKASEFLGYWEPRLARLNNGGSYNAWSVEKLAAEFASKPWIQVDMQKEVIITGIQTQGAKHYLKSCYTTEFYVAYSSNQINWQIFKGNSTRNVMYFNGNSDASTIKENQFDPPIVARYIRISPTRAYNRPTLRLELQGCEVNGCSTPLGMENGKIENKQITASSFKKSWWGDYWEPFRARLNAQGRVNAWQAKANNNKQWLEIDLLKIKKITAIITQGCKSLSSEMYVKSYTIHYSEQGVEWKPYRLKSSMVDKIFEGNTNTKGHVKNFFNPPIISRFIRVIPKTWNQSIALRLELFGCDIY
T5 sequence (P12259 with tags, fused parts or gaps DEL839-1519/R1573Q): as the sequence (P12259 with tags, fused parts or gaps DEL839-1519) above, with R864Q counted along it
T2 sequence (P12259 with tags, fused parts or gaps DEL839-1519): as the sequence (P12259 with tags, fused parts or gaps DEL839-1519) above
T7 sequence (P12259 with tags, fused parts or gaps R737Q/DEL839-1519): as the sequence (P12259 with tags, fused parts or gaps DEL839-1519) above, with R709Q counted along it
T3 sequence (P12259 with tags, fused parts or gaps DEL839-1519): as the sequence (P12259 with tags, fused parts or gaps DEL839-1519) above
T6 sequence (P12259 with tags, fused parts or gaps R737Q/DEL839-1519/R1573Q): as the sequence (P12259 with tags, fused parts or gaps DEL839-1519) above, with R709Q, R864Q counted along it

Molecule: H-C(X2)SRAWGESTPLANKPGKQSGHPKFPRVRHKSLQVRQDGGKSRLKKSQFLIKTRKKKKEK-OH [QSY7-BR]
sedimentation coefficient (s^020,w) ([1]; 5 μM QSY7-BR alone, absence of FV-810): 0.98 S (Svedberg)
sedimentation coefficient ([1]; 5 μM QSY7-BR in the presence of 7 μM FV-810): 9.8 S (Svedberg)

Molecule: platelet factor 4: cationic platelet factor 4 [reference compound]
inhibition of clotting activity of FV-810 (FV-DT) [2]: neither low molecular weight poly-L-lysine (average Mr=1000-5000) (FIG. 8A) nor the cationic platelet factor 4 affected FV-810 activity

Molecule: poly-L-lysine [reference compound]
inhibition of clotting activity of FV-810 (FV-DT) [2]: neither low molecular weight poly-L-lysine (average Mr=1000-5000) (FIG. 8A) nor the cationic platelet factor 4 affected FV-810 activity

B1: BR+AR peptide: FV residues 968-1007 and 1492-1538, juxtaposed BR and AR sequences from FV-B104 (peptide)
peptide: SGHPKFPRVRHKSLQVRQDGGKSRLKKSQFLIKTRKKKKETDYIEIIPKEEVQSSEDDYAEIDYVPYDDPYKTDVRTNINSSRDPDN
inhibition of clotting activity of rFVa/FVa [12]: not inhibited

Second part, led by results:

direct binding to FVDT [3]: directly bound
Molecule: TFPI peptide: C-terminal tail peptide of tissue factor pathway inhibitor (amino acids 240-265, SEQ ID NO: 4) (KKGFIQRISKGGLIKTKRKRKKQRVK; peptide from human tissue factor pathway inhibitor)
inhibition of FVDT [4]: inhibited FVBT in a manner similar to FVBR

inhibition of clotting activity of FV-810 (FV-DT) [2]: inhibited
Kd ([5]; 30 nM OG488-BR, 20 nM FV-810, 50 μM PCPS, 25° C., assuming stoichiometry of 1 mol of FV-810/mol of BR peptide): 28.3 ± 0.6 nM
weaker binding to FV-810 than the human BR ([5]; displacement binding experiments): ~10 fold
inhibition of prothrombin activation with FV-810 (FV-DT) [6]: inhibited
Molecule: bovine BR: Bos taurus FV basic region Ser938-Lys996 (SRTWGENIPFKNSHGKQSGHPTFLVTRRKPLQDRQDRRNSRLKEGLPLIRTRRKKKEEK)

binding to rFVa/FVa [7]: no detectable binding
Kd ([8]; after incubation with thrombin, read-out: Kd, OG488-BR binding to thrombin-cleaved FV-810^R1545Q): 30 nM
Kd ([8]; pretreated with buffer, assuming n=1, read-out: Kd, OG488-BR binding to FV-810^R1545Q): 2 nM
Kd, OG488-BR binding to thrombin-treated FV-810^QQ [9]: still bound
binding of OG488-BR to FV-810 with EDTA ([10]; 10 mM EDTA added to the buffer): no binding was observed
stoichiometry n at saturation ([10]; 20 or 40 nM OG488-BR, 50 μM PCPS, 25° C.): 1.27±0.02 mol of FV-810/mol of OG488-BR
Kd ([10]; FV-810 pretreated with buffer, 30 nM OG488-BR, 50 μM PCPS, assuming n=1): 2.1 ± 0.3 nM
Kd ([10]; FV-810 titrated into 20 or 40 nM OG488-BR, 50 μM PCPS, 25° C.): 2.07 ± 0.2 nM
Molecule: H-C(X1)SRAWGESTPLANKPGKQSGHPKFPRVRHKSLQVRQDGGKSRLKKSQFLIKTRKKKKEK-OH [OG488-BR]
binding of OG488-BR to thrombin-cleaved FV-810 ([10]; after incubation with thrombin): did not; also recorded: neither FV-810 nor FV-810^R709Q had detectable binding
binding of OG488-BR to thrombin-cleaved FV-810^R709Q [11]: did not; also recorded: neither FV-810 nor FV-810^R709Q had detectable binding

inhibition of clotting activity of FV-810 (FV-DT) [2]: no longer inhibited
Molecule: acetylated BR peptide: BR peptide acetylated at all Lys residues and the N terminus (Ac-SRAWGESTPLANK(Ac)PGK(Ac)QSGHPK(Ac)FPRVRHK(Ac)SLQVRQDGGK(Ac)SRLK(Ac)K(Ac)SQFLIK(Ac)TRK(Ac)K(Ac)K(Ac)K(Ac)EK(Ac))
